Measurements as given in patent US8329675B2, “Inhibitors of fatty acid amide hydrolase” (Infinity Pharmaceuticals, Inc., priority 2006, dated 2012).
Like-named read-outs stand apart in the source and are kept apart here.

Target: T1, human FAAH (Homo sapiens, UniProt O00519)
T1 construct: host or cells: COS-7 cells, transient transfection; 13,000 g membrane fraction solubilised in 1% Triton X-100
T1 sequence (O00519 1-579): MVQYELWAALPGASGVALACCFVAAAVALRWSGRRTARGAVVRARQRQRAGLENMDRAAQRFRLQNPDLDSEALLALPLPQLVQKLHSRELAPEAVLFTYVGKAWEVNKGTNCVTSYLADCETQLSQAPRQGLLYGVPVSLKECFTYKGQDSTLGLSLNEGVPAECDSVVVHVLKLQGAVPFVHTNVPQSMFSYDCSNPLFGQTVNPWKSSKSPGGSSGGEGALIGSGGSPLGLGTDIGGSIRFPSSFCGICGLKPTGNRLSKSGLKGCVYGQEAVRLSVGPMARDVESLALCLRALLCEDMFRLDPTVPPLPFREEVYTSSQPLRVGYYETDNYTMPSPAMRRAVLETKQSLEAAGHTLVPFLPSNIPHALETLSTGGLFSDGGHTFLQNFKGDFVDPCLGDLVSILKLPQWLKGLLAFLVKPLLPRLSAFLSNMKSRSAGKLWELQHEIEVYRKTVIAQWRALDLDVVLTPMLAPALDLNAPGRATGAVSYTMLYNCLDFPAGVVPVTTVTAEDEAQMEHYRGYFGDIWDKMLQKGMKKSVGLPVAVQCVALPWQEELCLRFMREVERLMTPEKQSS
Experiment: Human FAAH biochemical inhibition assay (AMC arachidonoyl amide fluorescence)
Method: The resulting solution is added into one dish of 30-40% confluent COS-7 cells in a drop-wise manner. The COS-7 cell dish is subsequently incubated for 48 hours. The cells are then harvested.
Harvest procedure: Media was aspirated from the dishes and the cells rinsed with 10 mL PBS. The PBS was removed and 3 mLs of PBS added to the dish. The dish was scraped to resuspend the cells, and the subsequent cell suspension collected into a 15 ml conical tube. The cells were pelleted by centrifugation at 1200 rpm for 5 minutes in a bench top centrifuge. PBS was removed and the cell pellet snap frozen in liquid nitrogen, store at −80 C.
The pellets were dounce homogenized and then sonicated to produce cell extract. The cell extract was subsequently centrifuged at 1000 g to remove cellular debris. The pellet was discarded and the supernatant centrifuged at 13,000 g for 20 minutes. The pellet contained membrane bound FAAH. The supernatant was discarded and the pellet resolubilized.
(2) Re-solubilization: The fraction of interest, (13,000 g, membrane fraction) was re-suspended in re-suspension buffer (20 mM Hepes pH 7.8, 10% v/v Glycerol, 1 mM EDTA, 1% Triton X-100) (2.3 mL re-suspension and the sample incubated on ice for 1 hour and then centrifuged to at 13,000 g remove any particulate matter. The supernatant containing solubilized human FAAH was aliquoted and snap frozen in liquid nitrogen and stored at −80° C. until use.
FAAH reaction buffer: 50 mM Hepes (pH 7.5), 1 mM EDTA, 0.2% Triton X-100.
Human FAAH assay; Experimental Protocol: A 0.1 mg/mL Human FAAH solution is made up in FAAH reaction buffer, and 24 ul pipetted into a 384 well plate. To this is added 1 uL of a 3 fold serially diluted inhibitor from a DMSO stock solution. The FAAH solution and inhibitor are incubated for 30 minutes at room temperature. The FAAH reaction is initiated by the addition of 25 uL of 40 uM AMC Arachidonoyl Amide in FAAH reaction buffer, yielding a final reaction human FAAH preparation concentration of 0.05 mg/ml and AMC-Arachidonoyl substrate concentration of 20 uM, reaction volume 50 uL. The reaction is allowed to proceed for 4 hours at room temperature. […] The microtiter plate in read in the envision plate reader.

[1] = Table 2, human FAAH (no asterisk), read-out: Activity (Ki)
[2] = Table 1, human FAAH (no asterisk), read-out: Activity (Ki)

Compound	Ki [1] [nM]	Ki [2] [nM]	other results
OB(O)c1ccc(COCc2ccccc2)c(Cl)c1 [II-43]	< 10	–	–
OB(O)c1cc(F)cc(C(F)(F)F)c1 [Compound I-13]	–	10 to 100	–
OB(O)c1ccc(CSc2ccccc2)cc1 [II-231]	< 10	–	–
CN(C(=O)c1ccccc1)c1ccc(B(O)O)cc1 [II-235]	10 to 1000	–	–
O=S(=O)(Cc1ccccc1)c1ccc(B(O)O)cc1 [II-222]	> 1000	–	–
C[N+]12CC(=O)O[B-]1(c1ccc(-c3cccc(F)c3)cc1F)OC(=O)C2 (stereo not drawn) [II-86]	< 10	–	–
COc1cccc(COc2c(Br)cccc2B(O)O)c1 [Compound I-5]	–	> 1000	–
CC(C)c1ccc(B(O)O)cc1 [Compound I-95]	–	10 to 100	–
Cc1ccc(B(O)O)cc1 [Compound I-96]	–	> 1000	–
Cc1cc(COc2ccc(B(O)O)cc2)ccc1F [II-267]	10 to 100	–	–
OB(O)c1ccc(Oc2cccc(F)c2)cc1C(F)(F)F [II-202]	10 to 100	–	–
NCCOB(c1ccccc1)c1ccccc1 [Compound I-125]	–	–	Ki: > 1000 nM
OB(O)c1ccc(CN2CCc3ccccc32)cc1F [II-91]	< 10	–	–
Cn1c(B(O)O)cc2c(OCc3ccccc3)cccc21 [Compound I-116]	–	> 1000	–
CC(C)NC(=O)c1cccc(Oc2ccc(B(O)O)cc2)c1 [II-225]	< 10	–	–
OB(O)c1ccc(OCc2cnco2)cc1F [II-135]	10 to 100	–	–
CC(C)Cc1ccc(B(O)O)cc1 [Compound I-97]	–	10 to 100	–
OB(O)c1cccc(OCc2ccccc2Cl)c1 [Compound I-140]	–	10 to 100	–
O=Cc1ccc(-c2ccccc2)c(F)c1 [Compound I-136]	–	> 1000	–
COc1ccc(Oc2ccc(B3OC(C)(C)C(C)(C)O3)cc2)cc1OC [II-264]	< 10	–	–
Cc1nc2cc(B(O)O)ccc2s1 [II-42]	10 to 1000	–	–
OB(O)c1ccc(OCCc2ccc(Cl)c(Cl)c2)cc1F [II-62]	< 10	–	–
OB(O)c1ccc(OCCc2cccnc2)cc1F [II-109]	< 10	–	–

Compound	Ki [1] [nM]	Ki [2] [nM]	other results
O=C(Nc1ccc(B(O)O)cc1)c1ccccc1 [II-249]	10 to 1000	–	–
OB(O)c1ccc(-c2nnc(-c3ccco3)o2)cc1 [II-7]	< 10	–	–
c1ccc(Oc2ccc(B(Oc3cccc4cccnc34)c3ccccc3)cc2)cc1 [II-75]	< 10	–	–
Cc1cc(-c2cccc(F)c2)ccc1B(O)O [II-208]	10 to 100	–	–
Cc1cc(OCc2ccc(B(O)O)cc2)ccc1Cl [II-250]	< 10	–	–
CCOc1ccc(B(O)O)cc1 [Compound I-59]	–	10 to 1000	–
CC1(C)OB(c2ccc(CNc3ccccc3)cc2)OC1(C)C [II-154]	< 10	–	–
OB(O)c1ccc2c(c1)Oc1ccccc1S2 [Compound I-159]	–	> 1000	–
OB(O)c1ccc(-c2cccs2)s1 [Compound I-135]	–	10 to 1000	–
CC1(C)OB(c2ccc(OCc3ccn[nH]3)cc2F)OC1(C)C [II-147]	10 to 100	–	–
OB(c1ccccc1)c1ccccc1 [II-83]	> 1000	–	–
CN(Cc1ccccc1)Cc1ccc(B(O)O)c(F)c1 [II-90]	10 to 100	–	–
OB(O)c1ccc(Oc2ccccc2)cc1 [II-317]	< 10	–	–
OB(O)c1ccc(-c2cnco2)cc1 [II-77]	10 to 100	–	–
COc1cc(B(O)O)ccc1Oc1cccc(F)c1 [II-282]	< 10	–	–
[O-][S+](Cc1ccc(B(O)O)c(F)c1)c1ccccc1 (stereo not drawn) [II-79]	> 1000	–	–
CC1(C)OB(c2ccc(OCCCc3ccccc3)cc2)OC1(C)C [II-170]	10 to 100	–	–
OB(O)c1csc2ccccc12 [Compound I-197]	–	10 to 100	–
OB(O)c1c(F)ccc(OCc2ccccc2)c1F [Compound I-143]	–	> 1000	–
OB(O)c1cc2ccccc2nc1Cl [Compound I-160]	–	> 1000	–
OB(O)c1ccc(-c2cccnc2)cc1F [II-13]	10 to 100	–	–
[O-][S+](Cc1ccccc1)Cc1ccc(B(O)O)c(F)c1 (stereo not drawn) [II-81]	10 to 1000	–	–
OB(O)c1ccc(-c2ccc(-c3ccccc3)c(F)c2)cc1F [II-10]	< 10	–	–

Compound	Ki [1] [nM]	Ki [2] [nM]	other results
O=S(=O)(Cc1ccccc1)Cc1ccc(B(O)O)c(F)c1 [II-80]	> 1000	–	–
OB(O)c1ccc(Oc2cc(Cl)cc(Cl)c2)cc1 [II-258]	10 to 100	–	–
OB(O)/C=C/c1ccccc1 [Compound I-106]	–	> 1000	–
O=C(c1ccc(B(O)O)cc1)N(Cc1ccccc1)Cc1ccccc1 [II-223]	10 to 1000	–	–
O=C(COc1ccc(B(O)O)c(F)c1)c1ccccc1 [II-140]	< 10	–	–
OB(O)c1ccsc1Cl [Compound I-51]	–	10 to 1000	–
CC(OCc1ccc(B(O)O)cc1)c1ccccc1 (stereo not drawn) [II-126]	< 10	–	–
OB(O)c1cccc(Cl)c1 [Compound I-73]	–	10 to 1000	–
CCCCOc1c(F)c(F)c(B(O)O)c(F)c1F [Compound I-53]	–	> 1000	–
Cc1cc(Oc2ccc(B(O)O)cc2)ccc1F [II-253]	< 10	–	–
CN(C)C(=O)c1cccc(Oc2ccc(B(O)O)cc2)c1 [II-228]	10 to 100	–	–
Cn1ccc2ccc(B(O)O)cc21 [Compound I-102]	–	> 1000	–
CC(C)(C)c1ccc(-c2ccc(B(O)O)cc2)cc1 [II-296]	10 to 1000	–	–
OB(O)c1ccc(-c2ccccc2)cc1F [Compound I-185]	–	< 10	–
O=C(c1ccc(Oc2ccccc2)cc1)C(F)(F)F [Compound I-132]	–	> 1000	–
c1ccc(-c2ccc(B3CCCO3)cc2)cc1 [II-184]	10 to 100	–	–
NC(=O)c1ccc(-c2cccc(B(O)O)c2)cc1 [II-304]	> 1000	–	–
CN(C)c1cc(B(O)O)cc(C(=O)O)c1 [II-88]	> 1000	–	–
COc1ccc(B(O)O)cc1OC [Compound I-77]	–	> 1000	–
OB(O)c1ccc(OCCc2cccc(C(F)(F)F)c2)cc1F [II-53]	< 10	–	–
CCC[C@H]1CC[C@H](c2ccc(B(O)O)cc2)CC1 [Compound I-30]	–	< 10	–
OB(O)c1ccc(OC[C@@H](COCc2ccccc2)OCc2ccccc2)cc1F [II-108]	10 to 100	–	–
CC1(C)OB(c2ccc(/C=C\c3ccccc3)cc2)OC1(C)C [Compound I-126]	–	> 1000	–

Compound	Ki [1] [nM]	Ki [2] [nM]	other results
Cc1ccc(Oc2ccc(B(O)O)cc2)cc1F [II-272]	< 10	–	–
COc1ccc(Oc2ccc(B(O)O)cc2)cc1OC [II-262]	< 10	–	–
Cc1cc(B(O)O)ccc1-c1ccccc1 [II-33]	10 to 100	–	–
Cc1ccc(Oc2ccc(B(O)O)cc2)cc1[N+](=O)[O-] [II-275]	< 10	–	–
OB(O)c1cc(F)cc(Cl)c1 [Compound I-18]	–	10 to 100	–
OB(O)c1cccc2[nH]ccc12 [Compound I-100]	–	> 1000	–
OB(O)c1cccc(OCc2cccc(Cl)c2)c1 [Compound I-141]	–	10 to 100	–
OB(O)c1ccc(Oc2cccc(F)c2)c(F)c1 [II-85]	< 10	–	–
CCCc1ccc(B(O)O)cc1 [Compound I-58]	–	10 to 100	–
CC1(C)OB(c2ccc(CN(Cc3ccccc3)Cc3ccccc3)cc2)OC1(C)C [II-178]	> 1000	–	–
OB(O)c1ccc(Oc2cccc(F)c2)cc1Cl [II-207]	< 10	–	–
CCCCNC(=O)C(Oc1ccc(B(O)O)cc1)c1ccccc1 (stereo not drawn) [II-218]	10 to 1000	–	–
CN(C(=O)c1ccc(B(O)O)cc1)c1ccccc1 [II-230]	10 to 100	–	–
COc1cc(Oc2cccc(F)c2)ccc1B(O)O [II-204]	< 10	–	–
OB(O)c1ccc(Cl)c(Cl)c1 [Compound I-75]	–	10 to 100	–
CC(C)(C)OC(=O)Nc1ccc(Oc2ccc(B(O)O)cc2)cc1 [II-288]	10 to 100	–	–
OB(O)c1ccc(COCc2ccccc2)cc1 [II-132]	< 10	–	–
CCOc1ccc(Br)cc1B(O)O [Compound I-6]	–	> 1000	–
OB(O)c1ccc(-c2cccc(-c3ccccc3)c2)cc1F [II-26]	< 10	–	–
OB(O)c1cc(Cl)cc(Cl)c1 [Compound I-22]	–	10 to 1000	–
OB(O)c1ccc(Oc2cccnc2)cc1F [II-149]	< 10	–	–
